Results as given in article PMC4649711, “In1-ghrelin splicing variant is overexpressed in pituitary adenomas and increases their aggressive features” (Scientific Reports, 2015).
“Also recorded” adds a separate entry of the source. Residues, ends and D or L forms follow the SMILES beside them. *: point of attachment. Octanoyl = CCCCCCCC(=O)*

Key:
recombinant human GHSR1b = biological target: T1, recombinant human GHSR1b (Homo sapiens, UniProt Q92847); experiment: calcium signaling activation in GHSR1b-transfected CHO-K1 cells; type: cell-based; details: Calcium 4 kit, FLIPR Tetra, 37°C dye loading 1 h, dose-response, GraphPad Prism, read-out: Half-maximal Calcium signaling activation (EC50)
T1 construct: expressed in transfected cells; host or cells: CHO-K1 (ATCC CCL-61), stably transfected
T1 sequence (Q92847 1-289 isoform Q92847-2): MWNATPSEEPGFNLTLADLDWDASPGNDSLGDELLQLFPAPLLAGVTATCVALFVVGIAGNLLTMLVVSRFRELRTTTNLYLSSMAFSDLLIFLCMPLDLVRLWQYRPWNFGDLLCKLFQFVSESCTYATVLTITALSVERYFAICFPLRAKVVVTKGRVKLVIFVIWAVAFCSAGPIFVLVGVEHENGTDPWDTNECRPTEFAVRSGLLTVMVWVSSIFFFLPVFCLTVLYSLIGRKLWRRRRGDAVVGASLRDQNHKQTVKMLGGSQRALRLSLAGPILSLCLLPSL
Protocol: Changes in [Ca^2+]i in CHO-K1 cell line expressing recombinant GHSR1a or GHSR1b receptor were measured using Calcium 4 Explorer Kit (Molecular Devices, Sunnyvale, CA, USA). Briefly, cells were incubated at 37°C, 5% CO2 overnight in growth media. After 24 hours, growth media was replaced with Calcium 4 indicating dye in HBSS buffer containing 20 mM HEPES and 0.1% BSA and incubated for 1 hour at 37°C. Fluorescent signals were then monitored using the FLIPR Tetra (Molecular Devices, Sunnyvale, CA, USA) during which cells were stimulated with compounds. Dose-response curves were analyzed using GraphPad Prism v5.04 (La Jolla, CA, USA).

NFPAs = experiment: cell viability of NFPAs after In1-ghrelin silencing; type: cell-based, human; details: siRNA 100 nM vs scramble, 24 and 48 h, alamar-blue, n = 2
Excerpt: (§1) To perform overexpression experiments, ghrelin sequence was purchased, cloned in pCMV-Sport6-vector (Harvard Cancer Center, Boston, MA, USA) and was subcloned into the expression vector pCDNA3.1+ (Life Technologies, Grand Island, NY, USA). In1-ghrelin sequence was PCR-amplified (In1-Hind-Up: 5′-[…]-3′ and In1-Bam-Low: 5′-[…]-3′) and cloned into pCDNA3.1+. Empty pCDNA3.1+ (mock) was used in all the experiments as negative control. For silencing experiments, a battery of custom-designed siRNAs specifically targeted against the unique In1-ghrelin mRNA sequence was chemically synthesized by Life Technologies and their efficiency, specificity and appropriate concentration tested in human cell lines expressing In1-ghrelin (MDA-MB-231 breast cancer cell line and LnCAP prostate cancer cell line) (data not shown). […]
(§2) As previously reported, cell viability was estimated using alamar-blue reagent (10,000 cells/well-plate; Biosource International, Camarillo, CA, USA)[30][50][52]. […] Reduction of alamar-blue reagent was quantified exciting at 560 nm and reading at 590 nm using the FlexStation III system (Molecular Devices, Sunnyvale, CA, USA). […]

GH-omas = experiment: cell viability of GH-omas after In1-ghrelin silencing; type: cell-based, human; details: siRNA 100 nM vs scramble, 24 and 48 h, alamar-blue, n = 2
Excerpt: as §1, §2

In1-ghrelin mRNA = experiment: silencing of In1-ghrelin mRNA expression; type: cell-based, human; details: qPCR; for silencing of In1-ghrelin expression: human cell lines MDA-MB-231 and LnCAP (data not shown) or representative pituitary tumor validation (Figure 6G)
Excerpt: To perform overexpression experiments, ghrelin sequence was purchased, cloned in pCMV-Sport6-vector (Harvard Cancer Center, Boston, MA, USA) and was subcloned into the expression vector pCDNA3.1+ (Life Technologies, Grand Island, NY, USA). In1-ghrelin sequence was PCR-amplified (In1-Hind-Up: 5′-[…]-3′ and In1-Bam-Low: 5′-[…]-3′) and cloned into pCDNA3.1+. Empty pCDNA3.1+ (mock) was used in all the experiments as negative control. For silencing experiments, a battery of custom-designed siRNAs specifically targeted against the unique In1-ghrelin mRNA sequence was chemically synthesized by Life Technologies and their efficiency, specificity and appropriate concentration tested in human cell lines expressing In1-ghrelin (MDA-MB-231 breast cancer cell line and LnCAP prostate cancer cell line) (data not shown). […] As a negative control, a commercial, validated negative control (scramble) was used in all the experiments, which according to the manufacturer's instructions, has no significant sequence similarity to murine or human gene sequences (Silencer Select Negative Control No. 1 siRNA, Life Technologies, […], NY, USA).
For transfection assays (overexpression or silencing), 200,000–500,000 cells were seeded on 6-well plates in serum containing medium during 24–36 h. Then, medium was replaced with antibiotic-antimycotic free medium. For overexpression experiments, 100 ng/50,000 cell of ghrelin or In1-ghrelin plasmid was diluted in 50 μL of Opti-MEM and, 0.5 μL of Lipofectamine 2000 (Life Technologies) were separately diluted in another 50 μL of Opti-MEM. Both solutions were incubated for 5 minutes at room temperature and then, were mixed and incubated for 30 minutes at room temperature. After this incubation period, the solution (total of 100 μL) was added to the cells/per well. For silencing experiments, 7.5 μL of Lipofectamine RNAiMAX (Life Technologies) was diluted in 100 μL of Opti-MEM and, 100 nM of In1-ghrelin siRNA was separately diluted in another 100 μL of Opti-MEM. […]

AtT-20 cell line [1] = experiment: ACTH secretion from AtT-20 cell line; type: cell-based, mouse; details: 4 h, 3–5 independent experiments
Protocol: (§3) The mouse corticotroph pituitary derived cell line AtT-20/D16v-F2 (ATCC® CRL-1795) was cultured and maintained in Dulbecco's Modified Eagle's Medium (DMEM) complemented with 10% FBS, 100 U/ml penicillin/streptomycin, 0.024 M of 2-(4(2-hydroxyethyl)-1-piperazine)-ethane sulfonic acid (HEPES), and maintained at 37°C and 5% CO2, under sterile conditions. CHO-K1 cell line(ATCC® CCL-61) expressing recombinant human GHSR1a (GenBank accession number U60179) or GHSR1b (GenBank accession number U60181) were cultured and maintained in Ham's F12 media (Corning #10-080-CV) supplemented with 10% FBS, 2 mM L-Glutamine and 0.4 mg/mL Geneticin.
To examine the effects of ghrelin system components (4- and/or 24 h-incubation) on pituitary hormone release from primary pituitary adenoma and/or AtT-20 cell line, 100,000–200,000 cell/well were used. As previously reported, hormone concentrations were measured in the culture media derived from human samples according to the pituitary adenoma type using commercial ELISAs [growth hormone, GH; adrenocorticotropin, ACTH; and prolactin, PRL (reference numbers: EIA-3552, EIA-3647 and EIA-1291, respectively; DRG, Mountainside, NJ, USA)] following the manufacturer's instructions. All the information regarding specificity, detectability, and reproducibility for each of the assays can be accessed at the web site of the company.

AtT-20 cell line [2] = experiment: cell viability of AtT-20 cell line; type: cell-based, mouse; details: alamar-blue, 3–5 independent experiments, IGF-1 and Paclitaxel as controls
Protocol: as §3
As previously reported, cell viability was estimated using alamar-blue reagent (10,000 cells/well-plate; Biosource International, Camarillo, CA, USA)[30][50][52]. Briefly, cells were serum-starved for 12–16 h before the measurements and treated with serum-free medium containing 10% alamar-blue for 3 h. Reduction of alamar-blue reagent was quantified exciting at 560 nm and reading at 590 nm using the FlexStation III system (Molecular Devices, Sunnyvale, CA, USA). Subsequently, media was replaced by serum-containing alamar-blue free medium and incubated for additional 24–72 h, measuring the alamar-blue reduction every 24 h. […]

In the case of CCCCCCCC(=O)OC[C@H](NC(=O)[C@H](CO)NC(=O)CN)C(=O)N[C@@H](Cc1ccccc1)C(=O)N[C@@H](CC(C)C)C(=O)N[C@@H](CO)C(=O)N1CCC[C@H]1C(=O)N[C@@H](CCC(=O)O)C(=O)N[C@@H](Cc1c[nH]cn1)C(=O)N[C@@H](CCC(N)=O)C(=O)N[C@@H](CCCNC(=N)N)C(=O)N[C@H](C(=O)N[C@@H](CCC(N)=O)C(=O)N[C@H](C(=O)N[C@@H](CCCNC(=N)N)C(=O)N1CCC[C@H]1C(=O)N1CCC[C@H]1C(=O)N[C@@H](Cc1c[nH]cn1)C(=O)N[C@@H](CCCCN)C(=O)O)C(C)C)C(C)C [In1-19] (H-GSS(Octanoyl)FLSPEHQRVQVRPPHK-OH), the EC50 (recombinant human GHSR1b) is reported as > 3 µM.

CCCCCCCC(=O)OC[C@H](NC(=O)[C@H](CO)NC(=O)CN)C(=O)N[C@@H](Cc1ccccc1)C(=O)N[C@@H](CC(C)C)C(=O)N[C@@H](CO)C(=O)N1CCC[C@H]1C(=O)N[C@@H](CCC(=O)O)C(=O)N[C@@H](Cc1c[nH]cn1)C(=O)N[C@@H](CCC(N)=O)C(=O)N[C@@H](CCCNC(=N)N)C(=O)N[C@H](C(=O)N[C@@H](CCC(N)=O)C(=O)N[C@H](C(=O)N[C@@H](CCCNC(=N)N)C(=O)N1CCC[C@H]1C(=O)N1CCC[C@H]1C(=O)N[C@@H](Cc1c[nH]cn1)C(=O)N[C@@H](CCCCN)C(=O)N[C@@H](C)C(=O)N1CCC[C@H]1C(=O)N[C@@H](Cc1c[nH]cn1)C(=O)N[C@H](C(=O)N[C@H](C(=O)N1CCC[C@H]1C(=O)N[C@@H](C)C(=O)N[C@@H](CC(C)C)C(=O)N1CCC[C@H]1C(=O)N[C@@H](CC(C)C)C(=O)N[C@@H](CO)C(=O)N[C@@H](CC(N)=O)C(=O)N[C@@H](CCC(N)=O)C(=O)N[C@@H](CC(C)C)C(=O)N[C@@H](CS)C(=O)N[C@@H](CC(=O)O)C(=O)N[C@@H](CC(C)C)C(=O)N[C@@H](CCC(=O)O)C(=O)N[C@@H](CCC(N)=O)C(=O)N[C@@H](CCC(N)=O)C(=O)N[C@@H](CCCNC(=N)N)C(=O)O)C(C)C)C(C)C)C(C)C)C(C)C [In1-40] (H-GSS(Octanoyl)FLSPEHQRVQVRPPHKAPHVVPALPLSNQLCDLEQQR-OH) was tested, and the EC50 (recombinant human GHSR1b) was > 3 µM.

For “5′-GAGTCCTAAACAGACTGTT-3′ (siRNA; other strand not given here) [In1-ghrelin siRNA]”, the “cell viability after In1-ghrelin silencing” value (NFPAs) was “reduced cell viability”, the “cell viability after In1-ghrelin silencing” value (GH-omas) was “reduced cell viability” and the “silencing of In1-ghrelin expression” value (In1-ghrelin mRNA) was “more robust silencing efficiency of In1-ghrelin, but not native ghrelin”. The “silencing of In1-ghrelin expression” value (In1-ghrelin mRNA; listed as specific siRNAs) was “decrease of In1-ghrelin mRNA expression” and the “ghrelin mRNA expression after In1-ghrelin silencing” value (In1-ghrelin mRNA; selectivity vs native ghrelin) was “no significant decrease of ghrelin mRNA expression”.

With “GSSFLSPEHQKAQVSQSVSLSPHIYPDLCVCV [In2-ghrelin, 32-aa mouse In2-ghrelin derived peptide, murine counterpart of In1-ghrelin]” the “basal ACTH release” value (AtT-20 cell line [1]) was “significantly increased basal ACTH release” and the cell viability (AtT-20 cell line [2]) was “stimulated cell viability; also recorded: increased cell viability”.
